# Laboratory results taken from publication PMC11786100, “Chronic GIPR agonism results in pancreatic islet GIPR functional desensitisation” (Molecular Metabolism, 2025).
# Like-named read-outs stand apart in the source and are kept apart here.
# Assays:
# [1] = test system: dispersed islet cells; experiment: cADDis cAMP concentration-response in dispersed islets; assay type: cell-based, mouse; settings: for EC50: three-parameter fit, n=5, read-out: calculated EC50, cAMP in dispersed islets
# Experimental: (§1) Primary cultures of mouse hypothalamic neurons and dispersed pancreatic islets were transduced with the Green Up cADDis biosensor (Montana Molecular, US). Pancreatic islets from CAMPER^Pdx−1-CreERT2 and CAMPER^Som-Cre mice were not transduced. Cells were pre-treated with peptides as specified, dissolved in culture media. Following 4 h or overnight incubation and a 1-hour washout period, cells were imaged using an epifluorescence microscope at baseline (t = 3 min), following peptide addition (t = 10 min, unless specified otherwise), and following 3-isobutyl-1-methylxanthine (IBMX) (500 μM) and forskolin (FSK) (50 μM) addition (t = 3 min) to maximally stimulate the sensor. In pre-treatment experiments, islet cell fluorescence was normalised to the IBMX/FSK response which was set as 100%. In non-pre-treatment experiments, islet and neuronal cell fluorescence was normalised to both the baseline and IBMX/FSK response. The area-under-the-curve (AUC) for each cell was quantified. Full details of isolation, transduction, plating, imaging and image analysis is provided in the supplementary methods.
# Dispersed islets: A cell suspension of dispersed islets in RPMI-1640 + 10% FBS + 1% P/S (islet complete media) was seeded onto square 96 well µ-plates (Ibidi, UK), coated with 0.01% poly-D-lysine hydrobromide (Sigma-Aldrich, UK) and 25 µg/ml mouse laminin (Thermo Fisher, UK). For cADDis experiments, cells were transduced with the Green Up cADDis biosensor (15 μL of cADDis, 1.5 μL of sodium butyrate per well: Montana Molecular, US). Cells were incubated overnight (37°C, 95%:5% O2:CO2 ratio).
# Cells were imaged in Krebs buffer with 6 mM glucose and 0.1% BSA (unless 10% FBS was specified) at 37°C using an automated epifluorescence microscope (modified Nikon Ti-2E with LED illumination). Multiple fields of view (FOV) were imaged in parallel (for islets, multiple wells of a 96 well plate were imaged in parallel), allowing hundreds to thousands of cells to be imaged every minute throughout the time course. For all acquisitions, the first three minutes were baseline recording pre-peptide addition and the last three minutes were a positive control following IBMX (500 μM) and forskolin (50 μM) addition to maximally stimulate the sensor.
# cAMP quantification from the raw islet/neuronal images was performed using Fiji v1.54f (NIH). For each acquisition, a flat-field (BaSiC [3*]) correction was applied, and intensity thresholding enabled cell-containing regions to be identified as regions-of-interest (ROIs). The fluorescence intensity of each ROI was measured at each time point. In pre-treatment experiments, islet cell fluorescence was normalised to the maximal IBMX/FSK response which was set as 100%. For non-pre-treatment experiments, neuronal and islet cell fluorescence were normalised to both the baseline and maximal IBMX/FSK response. The AUC during peptide stimulation for each cell was quantified. Neurons with an AUC greater than 75 (representing a response 15 % of the maximum IBMX/FSK response) were deemed responder neurons.
# We aimed to determine appropriate pre-treatment doses of GIPR agonists which would produce detectable cAMP responses, indicating target engagement, and were compatible with an extended incubation in complete medium, which could influence ligand availability via binding to serum proteins. We first performed concentration-response analysis in dispersed islets transduced with cADDis in the presence of 10% FBS (Figure S2A, B, D, E).
# To determine a sensible re-challenge dose of GIPR agonists, a further concentration-response analysis was conducted in cADDis-transduced dispersed islets in imaging buffer (Krebs buffer + 6 mM glucose + 0.1% BSA, i.e. without FBS) (Figure S2C, F). […] Therefore, 1 μM of GIP108 and 100 nM of GIP were chosen as peri-maximal re-stimulation doses for the remaining islet cAMP assays.
# GLP-1R agonist pre-treatment dose selection was performed concurrently with GIPR agonist dose selection.
# [2] = biological target: T1, GLP-1R (Mus musculus, UniProt O35659); experiment: Ex vivo islet GLP-1R desensitisation (pre-treat/washout/rechallenge cAMP); assay type: cell-based; settings: dispersed islets, cADDis
# T1 construct: from tissue; host or cells: dispersed mouse pancreatic islets
# T1 sequence (O35659 22-463): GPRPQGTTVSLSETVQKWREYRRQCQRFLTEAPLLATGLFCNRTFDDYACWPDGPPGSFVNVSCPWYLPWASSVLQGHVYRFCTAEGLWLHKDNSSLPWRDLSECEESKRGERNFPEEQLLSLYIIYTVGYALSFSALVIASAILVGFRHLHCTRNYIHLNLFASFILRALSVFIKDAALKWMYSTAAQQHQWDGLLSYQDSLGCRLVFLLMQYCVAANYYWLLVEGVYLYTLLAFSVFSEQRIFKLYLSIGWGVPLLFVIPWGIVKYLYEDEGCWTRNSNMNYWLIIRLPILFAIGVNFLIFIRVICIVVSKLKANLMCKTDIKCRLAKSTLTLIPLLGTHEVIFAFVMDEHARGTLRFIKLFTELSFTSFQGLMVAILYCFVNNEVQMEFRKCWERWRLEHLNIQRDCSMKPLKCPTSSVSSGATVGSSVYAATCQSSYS
# Experimental: as §1, with “Full details of isolation, transduction, plating, imaging and image analysis is provided in the supplementary methods.” left out
# cAMP quantification from the raw islet/neuronal images was performed using Fiji v1.54f (NIH). […] The fluorescence intensity of each ROI was measured at each time point. In pre-treatment experiments, islet cell fluorescence was normalised to the maximal IBMX/FSK response which was set as 100%. […] The AUC during peptide stimulation for each cell was quantified. […]
# [3] = Peptide stability in complete medium with dispersed islet cells (cAMP bioactivity assay); assay type: in vitro ADME, mouse
# Experimental: AD-293 cells were added to a 12-well plate and maintained in 2 ml complete DMEM. 1 μg of specified plasmid DNA was added to each well alongside Lipofectamine 2000 (Thermo Fisher, UK). cAMP production was quantified 24 hours following transfection using homogenous time resolved fluorescence (HTRF), specifically the cAMP-Gs Dynamic 2 kit (Cisbio, France). Peptides and cells were diluted in DMEM + 1% P/S + 0.1% BSA. For peptide stability testing, cells, fresh peptide and peptide incubated with dispersed islet cells were diluted in RPMI-1640 (Thermo Fisher, UK) + 10% FBS + 1% P/S. 10 μl of peptide and 10 μl of cell suspension were added in duplicate to an opaque 96-well plate (Grenier Bio-One, Austria) and incubated at 37°C for 30 minutes. 10 μl of cAMP-d2 and anti-cAMP cryptate, both diluted in lysis buffer, were added in quick succession as per the manufacturer’s protocol. The plates were then incubated at room temperature for 45 minutes and read using the SpectraMax i3x (Molecular Devices, US).
# Three-parameter curve fitting was applied.
# [4] = test system: murine hypothalamic neurons; experiment: cADDis cAMP imaging in primary hypothalamic neurons; assay type: cell-based, mouse; settings: 5-minute stimulation, n=4
# Experimental: as §1
# Primary cultures of hypothalamic neurons were prepared from 6-week-old male and female mice as described previously [2*]. A minor difference was that the neuronal pellet was resuspended in Neurobasal-A medium containing 0.25% Glutamax, 2% B27 and 25 ng/ml NGF (all Thermo Fisher, UK) (neuronal culture media).
# Hypothalamic neurons: 100 μL cell suspension of neurons in neuronal culture media was seeded on 35 mm petri dish (MatTek Corporation), pre-coated with 0.01% poly-D-lysine hydrobromide. […]
# cAMP quantification from the raw islet/neuronal images was performed using Fiji v1.54f (NIH). […] The fluorescence intensity of each ROI was measured at each time point. In pre-treatment experiments, islet cell fluorescence was normalised to the maximal IBMX/FSK response which was set as 100%. For non-pre-treatment experiments, neuronal and islet cell fluorescence were normalised to both the baseline and maximal IBMX/FSK response. The AUC during peptide stimulation for each cell was quantified. […]
# [5] = imaging buffer (Krebs + 6 mM glucose + 0.1% BSA, without FBS)
# [6] = in the presence of 10% FBS, stepwise addition
concentration remaining from 500 nM after 24 hours [3] [nM],Compound,"doses above which cAMP responses were detectable [1, 5]","EC50 ([1]; imaging buffer (Krebs buffer + 6 mM glucose + 0.1% BSA, without FBS)) [nM]",doses above which cAMP responses were detectable ([1]; in the presence of 10% FBS),"EC50 [1, 6] [nM]","cAMP response to GLP-1 (100 nM) after GIP108 pre-treatment ([2]; 24-hour pre-treatment with GIP108 (1 μM), n=3)","stability at 24 hours ([3]; 1 μM in complete medium with dispersed islet cells, cAMP bioactivity in mouse GIPR AD-293 cells)","concentration remaining from 500 nM after 24 hours ([3]; peptide at 1 μM in complete medium (RPMI-1640 + 10% FBS + 1% P/S) with dispersed islet cells, 24 h, concentrations halved during assay, read-out cAMP in mouse GIPR-expressing AD-293 cells, n=4) [nM]",cAMP response of hypothalamic neurons ([4]; 100 nM and 1 μM),"GLP-1R desensitisation after 4 h pre-treatment ([2]; pre-treatment GLP-1 (10 nM), rechallenge GLP-1 (1 nM), n = 3)",cAMP response of hypothalamic neurons ([4]; 10 and 100 nM)
–,CC[C@H](C)[C@H](NC(=O)[C@H](CO)NC(=O)[C@H](Cc1ccc(O)cc1)NC(=O)[C@H](CC(=O)O)NC(=O)[C@H](CO)NC(=O)[C@@H](NC(=O)[C@H](Cc1ccccc1)NC(=O)[C@@H](NC(=O)CNC(=O)[C@H](CCC(=O)O)NC(=O)C(C)(C)NC(=O)[C@@H](N)Cc1ccc(O)cc1)[C@@H](C)O)[C@@H](C)CC)C(=O)N[C@@H](C)C(=O)N[C@@H](CC(C)C)C(=O)N[C@@H](CC(=O)O)C(=O)N[C@@H](CCCCN)C(=O)N[C@H](C(=O)N[C@@H](Cc1c[nH]cn1)C(=O)N[C@@H](CCC(N)=O)C(=O)N[C@@H](CCC(N)=O)C(=O)N[C@@H](CC(=O)O)C(=O)N[C@@H](Cc1ccccc1)C(=O)N[C@H](C(=O)N[C@@H](CC(N)=O)C(=O)N[C@@H](Cc1c[nH]c2ccccc12)C(=O)N[C@@H](CC(C)C)C(=O)N[C@@H](CC(C)C)C(=O)N[C@@H](C)C(=O)N[C@@H](CCC(N)=O)C(=O)N[C@@H](CCCCN)C(=O)NCC(=O)N[C@@H](CCCCNC(=O)CC[C@H](NC(=O)CCCCCCCCCCCCCCCCCCC(=O)O)C(=O)O)C(=O)N[C@@H](CCCCN)C(=O)N[C@@H](CC(N)=O)C(=O)N[C@@H](CC(=O)O)C(=O)N[C@@H](Cc1c[nH]c2ccccc12)C(=O)N[C@@H](CCCCN)C(=O)N[C@@H](Cc1c[nH]cn1)C(=O)N[C@@H](CC(N)=O)C(=O)N[C@H](C(=O)N[C@H](C(=O)N[C@@H](CCC(N)=O)C(=O)O)[C@@H](C)O)[C@@H](C)CC)C(C)C)[C@@H](C)CC [GIP108],above 10 nM,218,above 100 nM,1960,small but significant decrease,remained partially stable at 24 hours,215,failed to show detectable responses,–,–
0.177,GLP-1(7–36)·NH2,above 0.1 nM,–,above 0.1 nM,0.295,–,–,–,–,"partial GLP-1R desensitisation, this was not statistically significant",significant responses
